# Measured values: patent publication US20020028938A1, “Prostaglandin endoperoxide H synthase biosynthesis inhibitors” (priority 1997, published 2002)
row,melting point,Compound
1,134 to 136 °C,"CC(C)Oc1c(-c2ccc(S(C)(=O)=O)cc2)cnn(-c2cccc(Cl)c2)c1=O [Example 201, 2-(3-Chlorophenyl)-4-(2-propoxy)-5-[4-(methylsulfonyl)phenyl]-3(2H)-pyridazinone]"
2,110 to 112 °C,"CC(C)Oc1c(-c2ccc(S(C)(=O)=O)cc2)cnn(-c2cccc(F)c2)c1=O [Example 202, 2-(3-Fluorophenyl)-4-(2-propoxy)-5-[4-(methylsulfonyl)phenyl]-3(2H)-pyridazinone]"
3,161 to 164 °C,"CC(C)Oc1c(-c2ccc(S(C)(=O)=O)cc2)cnn(-c2cc(F)ccc2F)c1=O [Example 204, 2-(2,5-Difluorophenyl)-4-(2-propoxy)-5-[4-(methylsulfonyl)phenyl]-3(2H)-pyridazinone]"
4,50 to 70 °C,"CS(=O)(=O)c1ccc(-c2cnn(-c3cccc(Cl)c3)c(=O)c2COC(=O)c2ccccc2)cc1 [Example 208, 2-(3-Chlorophenyl)-4-(benzoyloxymethyl)-5-[4-(methylsulfonyl)phenyl]-3(2H)-pyridazinone]"
5,237 to 239 °C,"CS(=O)(=O)c1ccc(-c2cnn(CC(F)(F)F)c(=O)c2-c2ccc3c(c2)COC3=O)cc1 [Example 221, 2-(2,2,2-Trifluoroethyl)-4-(1-oxo-1,3-dihydro-2-benzofuran-5-yl)-5-[4-(methylsulfonyl)phenyl]-3(2H)-pyridazinone]"
6,192 to 195 °C,"C=CCc1c(-c2ccc(S(C)(=O)=O)cc2)cnn(CC(F)(F)F)c1=O [Example 222, 2-(2,2,2-Trifluoroethyl)-4-(2-propenyl)-5-[4-(methylsulfonyl)phenyl]-3(2H)-pyridazinone]"
7,175 to 180 °C,"CC=C(C)c1c(-c2ccc(S(C)(=O)=O)cc2)cnn(CC(F)(F)F)c1=O [Example 223, 2-(2,2,2-Trifluoroethyl)-4-(2-buten-2-yl)-5-[4-(methylsulfonyl)phenyl]-3(2H)-pyridazinone]"
8,242 to 244 °C,"Cc1ccc(-c2c(-c3ccc(S(C)(=O)=O)cc3)cnn(-c3ccc(F)cc3)c2=O)cc1 [Example 229, 2-(4-Fluorophenyl)-4-(4-methylphenyl)-5-[4-(methylsulfonyl)-phenyl]-3(2H)-pyridazinone]"
9,166 to 168 °C,"CS(=O)(=O)c1ccc(-c2cnn(-c3ccc(F)c(F)c3)c(=O)c2Cc2ccccc2)cc1 [Example 233, 2-(3,4-Difluorophenyl)-4-benzyl-5-[4-(methylsulfonyl)phenyl]-3(2H)-pyridazinone]"
10,149 to 150 °C,"CC#Cc1c(-c2ccc(S(C)(=O)=O)cc2)cnn(-c2ccc(F)c(F)c2)c1=O [Example 238, 2-(3,4-Difluorophenyl)-4-(1-propynyl)-5-[4-(methylsulfonyl)phenyl]-3(2H)-pyridazinone]"
11,245 to 248 °C,"Cc1ccc(-c2c(-c3ccc(S(C)(=O)=O)cc3)cnn(-c3ccc(F)cc3)c2=O)cc1F [Example 250, 2-(4-Fluorophenyl)-4-(3-fluoro-4-methylphenyl)-5-[4-(methylsulfonyl)phenyl]-3(2H)-pyridazinone]"
12,177 to 179 °C,"CS(=O)(=O)c1ccc(-c2cnn(-c3ccc(F)c(F)c3)c(=O)c2Cc2ccc(F)c(F)c2)cc1 [Example 255, 2-(3,4-Difluorophenyl)-4-(3,4-difluorobenzyl)-5-[4-(methylsulfonyl)phenyl]-3(2H)-pyridazinone]"
13,119 to 121 °C,"CC(C)CCc1c(-c2ccc(S(C)(=O)=O)c(F)c2)cnn(-c2ccc(F)c(F)c2)c1=O [Example 258, 2-(3,4-Difluorophenyl)-4-(3-methylbutyl)-5-[3-fluoro-4-(methylsulfonyl)phenyl]-3(2H)-pyridazinone]"
14,105 to 107 °C,"CSc1cc(-n2ncc(-c3ccc(S(C)(=O)=O)cc3)c(-c3ccc(F)cc3)c2=O)ccc1F [Example 259, 2-[4-Fluoro-3-(methylthio)phenyl]-4-(4-fluorophenyl)-5-[4-(methylsulfonyl)phenyl]-3(2H)-pyridazinone]"
15,179 to 181 °C,"CS(=O)(=O)c1ccc(-c2cnn(CC(F)(F)F)c(=O)c2Oc2ccc(C#N)cc2)cc1 [Example 264, 2-(2,2,2-Trifluoroethyl)-4-(4-cyanophenoxy)-5-[4-(methylsulfonyl)phenyl]-3(2H)-pyridazinone]"
16,163 to 165 °C,"CS(=O)(=O)c1ccc(-c2cnn(CC(F)(F)F)c(=O)c2Oc2ccc(-c3ccccc3)cc2)cc1 [Example 268, 2-(2,2,2-Trifluoroethyl)-4-(4-phenylphenoxy)-5-[4-(methylsulfonyl)phenyl]-3(2H)-pyridazinone]"
17,121 to 123 °C,"CS(=O)(=O)c1ccc(-c2cnn(CC(F)(F)F)c(=O)c2OCc2ccccc2)cc1 [Example 270, 2-(2,2,2-Trifluoroethyl)-4-(phenylmethoxy)-5-[4-(methylsulfonyl)phenyl]-3(2H)-pyridazinone]"
18,113 to 114 °C,"CS(=O)(=O)c1ccc(-c2cnn(CC(F)(F)F)c(=O)c2OC2CCc3ccccc32)cc1 (centres unmarked) [Example 276, 2-(2,2,2-Trifluoroethyl)-4-(1-indanyloxy)-5-[4-(methylsulfonyl)phenyl]-3(2H)-pyridazinone]"
19,196 to 199 °C,"CS(=O)(=O)c1ccc(-c2cnn(-c3ccc(F)c(F)c3)c(=O)c2Oc2ccc(Br)cc2)cc1 [Example 282, 2-(3,4-Difluorophenyl)-4-(4-bromophenoxy)-5-[4-(methylsulfonyl)phenyl]-3(2H)-pyridazinone]"
20,108 to 111 °C,"CS(=O)(=O)c1ccc(-c2cnn(CC(F)(F)F)c(=O)c2SCc2ccccc2)cc1 [Example 285, 2-(2,2,2-Trifluoroethyl)-4-phenylmethylthio-5-[4-(methylsulfonyl)phenyl]-3(2H)-pyridazinone]"
21,186 to 189 °C,"CC(C)(C)Sc1c(-c2ccc(S(C)(=O)=O)cc2)cnn(CC(F)(F)F)c1=O [Example 290, 2-(2,2,2-Trifluoroethyl)-4-(tert-butylthio)-5-[4-(methylsulfonyl)phenyl]-3(2H)-pyridazinone]"
22,> 260 °C,"CS(=O)(=O)c1ccc(-c2cnn(CC(F)(F)F)c(=O)c2N)cc1 [Example 294, 2-(2,2,2-Trifluoroethyl)-4-amino-5-[4-(methylsulfonyl)phenyl]-3(2H)-pyridazinone]"
23,110 to 113 °C,"COCCCNc1c(-c2ccc(S(C)(=O)=O)cc2)cnn(CC(F)(F)F)c1=O [Example 295, 2-(2,2,2-Trifluoroethyl)-4-(3-methoxylpropylamino)-5-[4-(methylsulfonyl)phenyl]-3(2H)-pyridazinone]"
24,134 to 139 °C,"CS(=O)(=O)c1ccc(-c2cnn(CC(F)(F)F)c(=O)c2NC2CCCC2)cc1 [Example 296, 2-(2,2,2-Trifluoroethyl)-4-(cyclopentylamino)-5-[4-(methylsulfonyl)phenyl]-3(2H)-pyridazinone]"
25,163 to 165 °C,"COc1ccc(CCNc2c(-c3ccc(S(C)(=O)=O)cc3)cnn(CC(F)(F)F)c2=O)cc1OC [Example 298, 2-(2,2,2-Trifluoroethyl)-4-(3,4-dimethoxyphenethylamino)-5-[4-(methylsulfonyl)phenyl]-3(2H)-pyridazinone]"

row,Compound,melting point
1,"CC(C)(C)CCOc1c(-c2ccc(S(C)(=O)=O)cc2)cnn(CC(F)(F)F)c1=O [Example 280, 2-(2,2,2-Trifluoroethyl)-4-(3,3-dimethylbutoxy)-5-[4-(methylsulfonyl)phenyl]-3(2H)-pyridazinone]",83 to 85 °C
